Assay [1] deals with HEL cells with JAK2V617F activation mutation. Nature of the assay: CTG cell proliferation assay, HEL cells. Type of assay: cell-based, human. As for the experimental part:
(§1) The effects of compound 1 on proliferation of human myeloproliferative tumor cells HEL and SET-2 cells with JAK2V617F activation mutation were tested using CTG assay in this example to evaluate half inhibitory rate (IC50) of compound 1 on HEL and SET-2 cell proliferation.
(§2) • a) HEL cells were cultured in RPMI 1640 medium containing 1% PS and 10% FBS. […] The cells were incubated in a humidified incubator with 5% carbon dioxide (CO2) at 37° C.
(§3) • a) Cells were harvested upon reaching a certain density. • b) Cells were resuspended in corresponding medium with a certain density. • c) 30 μL of cell suspension was added into each well of a 384-well plate. For HEL, the density was 1800 cells/well, and for SET-2, 2000 cells/well. • d) Cells were incubated overnight in a humidified incubator with 5% CO2 at 37° C.
(§4) The compounds were diluted with DMSO 6.67 fold from 20 mM to 3 mM, then 3-fold serial dilutions were conducted to make 10 concentrations for each compound. […]
(§5) • a) 30 μL CTG reagent (CelltiterGlo kit) was added to each well, and the plate was subjected to orbital shaking for 2 minutes, then incubated at room temperature in the dark for 30 minutes. • b) Luminescence values were obtained using Envision.
(§6) IC50 (the half maximal inhibitory concentration) was calculated with GraphPad Prism 8 software and following nonlinear fitting formula: […]

In assay [2] the test system is SET-2 cells with JAK2V617F activation mutation. Nature of the assay: CTG cell proliferation assay, SET-2 cells. It counts as cell-based, human. On the procedure:
as §1, §2, §3, §4, §5, §6

Assay [3] concerns NF-κB transcriptional activity. The experiment in a line: NF-κB reporter gene assay in HEK293 cells. Type of assay: cell-based. As for the experimental part:
In present example, reporter gene assay was used to determine the inhibitory effect of compound 1 on NF-κB transcriptional activity in HEK293 cells, to evaluate the effect of the compound on NF-κB transcriptional activity.
• a) All compounds were 3-fold serial diluted from 10 mM for 10 doses in DMSO. • b) The positive compound CDDO-Me was 3-fold serial diluted from 10 mM for 10 doses in DMSO. • c) 1000×positive control ([…]) and 1000×negative control (100% DMSO) were prepared. • d) Compounds plate was sealed and shaked for 5 minutes.
• a) All cells were cultured following ATCC recommendations. […] Digestion was terminated with complete culture medium, and the cells were collected and counted. • d) A total of 6*10^6 HEK293T cells were seeded into a 100 mm cell culture dish. • e) The cells were then incubated overnight in a 5% CO2 incubator. […]
• a) The Britelite plus reagent were allowed to reach room temperature. • b) The 384-well assay plates (prepared at Step 3) were allowed to reach room temperature. • c) 25 μL Britelite plus reagent was added to each well of 384-well assay plate. • d) Luminescence values were recorded with Envision.
[formula] • RLU: relative luminescence units • RLUPositive: The average luminescence value of the blank controls. • RLUvehicle: The average luminescence value of the negative controls. • 5.2 IC50 calculating and compound dose-response curves fitting: […]

Assay [4] concerns IL-6 secretion in THP-1 cells. Nature of the assay: IL-6 ELISA in THP-1 cell supernatants following LPS stimulation. Type of assay: cell-based, Human. As for the experimental part:
The Human IL-6 Valukine ELISA kit (purchased from R&D) was used to measure the IL-6 content in the cell supernatants by ELISA method in this example. The experimental procedures shown below were conducted to determine the effect of compound 1 on IL-6 secretion in THP-1 cell supernatants following LPS stimulation.
THP-1 cells were cultured in RPMI 1640 medium containing 1% PS and 10% FBS and 2-Mercaptoethanol (IX). The cells were incubated in a humidified incubator with 5% carbon dioxide (CO2) at 37° C. […]
• a) 50 μL medium was added to each well. • b) 100 μL CTG reagent (CelltiterGlo kit) was added to each well, and the plate was placed on a orbital shaker for 2 minutes, then placed at room temperature in dark conditions for 30 minutes, and then transferred to CTG plate. • c) The luminescence values were recorded with Envision.
IC50 (The half maximal inhibitory concentration) was calculated using GraphPad Prism 8 software with the following nonlinear fitting formula: […]
[formula] • b) IL-6 detection: X: Log value of Compound concentration, Y: IL-6 concentration (pg/mL) • IL-6 concentration was calculated based on the linear equation of standard dilution concentration and wavelength detection. […]
(In general: An ELISA detects its analyte on a solid surface through an enzyme-linked reagent.)

Setting [5] is: Homo sapiens, 72 h, CTG, read-out: IC50 for cell proliferation inhibition.

On to `Cc1nc2ncc(-c3cn(C)c(=O)c4[nH]ccc34)nc2n1Cc1ccc(C(F)(F)F)cc1` [Compound 1, 6-methyl-4-(2-methyl-1-(4-(trifluoromethyl)benzyl)-1H-imidazo[4,5-b]pyrazin-6-yl)-1H-py rrolo[2,3-c]pyridin-7(6H)-one], for which, in assay [1], the “inhibitory effect on proliferation of HEL cells (in words)” value was “good inhibitory effect”. In addition, the IC50 in assay [1] (setting [5]) worked out at 154 nM; in assay [2] (setting [5]), 104 nM; in assay [3] (Homo sapiens, HEK293 cells with NF-κB reporter gene, 8 ng/ml TNFα, 16-20 h, read-out: IC50 for the inhibition of NF-κB transcriptional activity) it was 148 nM; in assay [4] (Homo sapiens, THP-1 cells, LPS 4 μg/mL, read-out: IC50 for inhibition of IL-6 secretion in THP-1 cells), 22.4 nM. The “inhibitory effect on proliferation of SET-2 cells (in words)” value in assay [2] is given as “good inhibitory effect”. The “inhibition of the transcriptional activity of NF-κB (in words)” value in assay [3] (HEK293 cells stably transfected with the NF-κB reporter gene) is recorded as “significantly inhibited”. In assay [4] (THP1 monocytes, LPS), the “inhibition of IL-6 secretion (in words)” value is reported as “significantly inhibited”.
